Experimental data: patent US10160771B2, “Hepatitis C virus inhibitors and uses thereof in preparation of drugs” (priority 2014, dated 2018)

Assays:
[1] = test system: HCV genotype 1a (HCV-1a) replicon cells; test: HCV genotype 1a replicon luciferase assay (EC50); format: cell-based, hepatitis C virus genotype 1a (H77 clone); settings: 3 days, luciferase (Bright-Glo)
How it was run: (§1)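 Replicon cells, 8000/well, 3 d, 37 °C; 6-pt 5-fold dilution from 100, 10 or 1 nM, 0.5% DMSO, duplicates; Bright-Glo luminescence → EC50 (nonlinear fit). 1a = H77 K1691R/K2040R/S2204I; 1b = Con1 E1202G/T1280I/K1846T.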

[2] = test system: HCV genotype 1b (HCV-1b) replicon cells; test: HCV genotype 1b replicon luciferase assay (EC50); format: cell-based, hepatitis C virus genotype 1b (Con1 clone); settings: 3 days, luciferase (Bright-Glo)
How it was run: as §1

in vitro = format: cell-based; settings: HCV 1a replicon cells, 3 days, Cell Titer-fluor
Description: The EC50 and CC50 values of anti-HCV compounds were determined by HCV genotype 1a (HCV-1a) and 1B (HCV-1b) stable transfer replication (replicon) cells. The source of genotype 1a replicon is H77 clones containing K1691R, K2040R and S2204I adaptive mutations. The source of genotype 1b replicon is Con1 clones containing E1202G, T1280I and K1846T adaptive mutations.
HCV Replicon Cell Lines: HCV-1a and HCV-1b Cells
The compound powder was dissolved in 100% DMSO. Then the compound was diluted 5 times with 6 points, and added into the cell plate with Echo liquid handler. Ensure the final concentration of DMSO was 0.5%. Each compound was tested in double holes. Maximum initial concentration was 100, 10 or 1 nM, 5 times dilution, 6 points.
b) Cell Culture (HCV-1a or HCV-1b Replicon Cell):
1) absorbing the culture supernatant of the cell culture and washing the cells with 10 mL PBS.
2) adding preheated pancreatin to the washed cell culture flasks, rotating culture bottle to make the bottom of the culture bottle uniformly covered by pancreatin, then placed into 37° C., 5% CO2 incubator to digest.
3) suspending cells in each T150 culture flask with 10-15 mL culture medium, absorbing 0.1 mL liquid and diluting 2 times by trypan blue solution as counted.
4) diluting cells to 8×10^4/mL with the culture medium, adding the diluted cells into the compound-containing 96-well plate (Greiner, Cat.#655090) (100 μL/well, 8000 cells/well) with automatic liquid separator (Thermo Scientific). Then place into a 37° C., 5% CO2 incubator for 3 days. Cell control well: no compound, only containing 0.5% DMSO.
5) adding chemiluminescent substrate Cell Titer-fluor to the cell well, after incubation for 30 minutes, detecting the signal by chemiluminescence detection system Envison (Ex at 405 nm and read at 515 nm). The effect of the compounds on the activity of HCV replicon cells was analyzed according to the luminescence data, which was used to calculate the CC50 values.
The EC50 or CC50 values were obtained by nonlinear fitting analysis on inhibition percentage (inh %) data with GraphPad Prism software.

[3] = Cell Titer-fluor cell activity assay in HCV-1b replicon cells (CC50); format: cell-based
How it was run: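 CC50 derived by nonlinear fitting of inhibition % from Cell Titer-fluor signal (405/515 nm, 30 min). Cells: genotype 1b Con1 replicon carrying E1202G, T1280I, K1846T, seeded 8000/well with compound for 3 days, 37 °C, 0.5% DMSO; 6 points, 5-fold dilution, top 100, 10 or 1 nM, duplicates.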

COC(=O)N[C@H](C(=O)N1CCCC1c1ccc(-c2ccc(-c3ccc(-c4cnc([C@@H]5CCCN5C(=O)[C@@H](NC(=O)OC)C(C)C)[nH]4)cc3)cc2)[nH]1)C(C)C (stereo partly drawn) [AG_001]
EC50 ([1]; Hepatitis C virus, 72 h): 1 to 10 nM
EC50 ([2]; Hepatitis C virus, 72 h): 0.001 to 0.1 nM
CC50 (in vitro): > 10 nM
CC50 at 3 days [3]: > 1 nM

COC(=O)N[C@H](C(=O)N1CCCC1c1[nH]c(-c2ccc(-c3ccc(-c4cnc([C@@H]5CCCN5C(=O)[C@@H](NC(=O)OC)C(C)C)[nH]4)cc3)cc2)c2c1CCCC2)C(C)C (stereo partly drawn) [AG_015]
EC50 ([1]; Hepatitis C virus, 72 h): 10 to 100 nM
EC50 ([2]; Hepatitis C virus, 72 h): 0.001 to 0.1 nM
CC50 (in vitro): > 100 nM
CC50 at 3 days [3]: > 10 nM

COC(=O)NC(C(=O)N1CCC[C@H]1c1ncc(-c2ccc(-c3ccc(-c4[nH]c(C5CCCN5C(=O)[C@@H](NC(=O)OC)C(C)C)c5c4CCC5)cc3)cc2)[nH]1)C1CCOCC1 (stereo partly drawn) [AG_035]
EC50 ([1]; Hepatitis C virus, 72 h): 10 to 100 nM
EC50 ([2]; Hepatitis C virus, 72 h): 0.001 to 0.1 nM
CC50 (in vitro): > 100 nM
CC50 at 3 days [3]: > 10 nM

COC(=O)NC(C(=O)N1CCCC1c1[nH]c(-c2ccc(-c3ccc(-c4cnc([C@@H]5CCCN5C(=O)[C@@H](NC(=O)OC)C(C)C)[nH]4)cc3)cc2)c2c1CCC2)C1CCOCC1 (stereo partly drawn) [AG_036]
EC50 ([1]; Hepatitis C virus, 72 h): 1 to 10 nM
EC50 ([2]; Hepatitis C virus, 72 h): 0.001 to 0.1 nM
CC50 (in vitro): > 100 nM
CC50 at 3 days [3]: > 10 nM

COC(=O)N[C@H](C(=O)N1CCC[C@H]1c1ncc(-c2ccc(-c3ccc(-c4ccc(C5CCCN5C(=O)[C@@H](NC(=O)OC)C5CCOCC5)[nH]4)cc3)cc2)[nH]1)C(C)C (stereo partly drawn) [AG_037]
EC50 ([1]; Hepatitis C virus, 72 h): 0.101 to 1 nM
EC50 ([2]; Hepatitis C virus, 72 h): 0.001 to 0.1 nM
CC50 (in vitro): > 100 nM
CC50 at 3 days [3]: > 10 nM

COC(=O)NC(C(=O)N1CCCC1c1ccc(-c2ccc(-c3ccc(-c4[nH]c(C5CCCN5C(=O)[C@H](NC(=O)OC)C(C)C)c5c4CCC5)cc3)cc2)[nH]1)C1CCOCC1 (stereo partly drawn) [AG_038]
EC50 ([1]; Hepatitis C virus, 72 h): 10 to 100 nM
EC50 ([2]; Hepatitis C virus, 72 h): 0.101 to 1 nM
CC50 (in vitro): > 100 nM
CC50 at 3 days [3]: > 10 nM

COC(=O)NC(C(=O)N1CCCC1c1[nH]c(-c2ccc(-c3ccc(-c4cnc([C@@H]5CCCN5C(=O)[C@@H](NC(=O)OC)C(C)C)[nH]4)cc3)cc2)c2c1CCCC2)C1CCOCC1 (stereo partly drawn) [AG_040]
EC50 ([1]; Hepatitis C virus, 72 h): 10 to 100 nM
EC50 ([2]; Hepatitis C virus, 72 h): 0.101 to 1 nM
CC50 (in vitro): > 100 nM
CC50 at 3 days [3]: > 10 nM

COC(=O)NC(C(=O)N1CCCC1c1[nH]c(-c2ccc(-c3ccc(-c4cnc([C@@H]5CCCN5C(=O)C(NC(=O)OC)C5CCOCC5)[nH]4)cc3)cc2)c2c1CCC2)C1CCOCC1 (stereo partly drawn) [AG_042]
EC50 ([1]; Hepatitis C virus, 72 h): 1 to 10 nM
EC50 ([2]; Hepatitis C virus, 72 h): 0.101 to 1 nM
CC50 (in vitro): > 100 nM
CC50 at 3 days [3]: > 100 nM

COC(=O)NC(C(=O)N1CCCC1c1[nH]c(-c2ccc(-c3ccc(-c4cnc([C@@H]5CCCN5C(=O)C(NC(=O)OC)C5CCOCC5)[nH]4)cc3)cc2)c2c1CCCC2)C1CCOCC1 (stereo partly drawn) [AG_045]
EC50 ([1]; Hepatitis C virus, 72 h): 10 to 100 nM
EC50 ([2]; Hepatitis C virus, 72 h): 0.101 to 1 nM
CC50 (in vitro): > 100 nM
CC50 at 3 days [3]: > 100 nM

COC(=O)N[C@H](C(=O)N1CC2(CCCC2)C[C@H]1c1ncc(-c2ccc(-c3ccc(-c4[nH]c([C@@H]5CCCN5C(=O)[C@@H](NC(=O)OC)[C@@H](C)OC)c5c4COC5)cc3)cc2)[nH]1)[C@@H](C)OC [AG_111]
EC50 ([1]; Hepatitis C virus, 72 h): 0.101 to 1 nM
EC50 ([2]; Hepatitis C virus, 72 h): 0.001 to 0.1 nM
CC50 at 3 days [3]: > 1 nM

COC(=O)N[C@H](C(=O)N1CCC[C@H]1c1ccc(-c2ccc(-c3ccc(-c4cnc([C@H](C)NC(=O)[C@@H](NC(=O)OC)[C@@H](C)OC)[nH]4)cc3)cc2)[nH]1)C(C)OC (stereo partly drawn) [AG_112]
EC50 ([1]; Hepatitis C virus, 72 h): 1 to 10 nM
EC50 ([2]; Hepatitis C virus, 72 h): 0.001 to 0.1 nM
CC50 at 3 days [3]: > 1 nM

COC[C@H](NC(=O)OC)C(=O)N1CCC[C@H]1c1ncc(-c2ccc(-c3ccc(-c4[nH]c([C@@H]5CCCN5C(=O)[C@@H](NC(=O)OC)C(C)OC)c5c4COC5)cc3)cc2)[nH]1 (stereo partly drawn) [AG_113]
EC50 ([1]; Hepatitis C virus, 72 h): 0.101 to 1 nM
EC50 ([2]; Hepatitis C virus, 72 h): 0.001 to 0.1 nM
CC50 at 3 days [3]: > 1 nM

COC(=O)N[C@H](C(=O)N1CCC[C@@H]1c1[nH]c(-c2ccc(-c3ccc(-c4cnc([C@@H]5CCCN5C(=O)[C@@H](NC(=O)OC)C(C)C)[nH]4)cc3)cc2)c2c1CCCO2)C(C)C [AG_114_B]
EC50 ([1]; Hepatitis C virus, 72 h): 10 to 100 nM
EC50 ([2]; Hepatitis C virus, 72 h): 0.101 to 1 nM
CC50 at 3 days [3]: > 1 nM

COC(=O)N[C@H](C(=O)N1CCC[C@H]1c1ccc(-c2ccc(-c3ccc(-c4cnc([C@@H]5CC6(CC6)CN5C(=O)[C@@H](NC(=O)OC)[C@@H](C)OC)[nH]4)cc3)cc2)[nH]1)[C@@H](C)OC [AG_115]
EC50 ([1]; Hepatitis C virus, 72 h): 0.101 to 1 nM
EC50 ([2]; Hepatitis C virus, 72 h): 0.001 to 0.1 nM
CC50 at 3 days [3]: > 1 nM

COC(=O)N[C@H](C(=O)N1CC2(CC2)C[C@H]1c1ncc(-c2ccc(-c3ccc(-c4[nH]c([C@@H]5CCCN5C(=O)[C@@H](NC(=O)OC)[C@@H](C)OC)c5c4COC5)cc3)cc2)[nH]1)[C@@H](C)OC [AG_116]
EC50 ([1]; Hepatitis C virus, 72 h): 0.001 to 0.1 nM
EC50 ([2]; Hepatitis C virus, 72 h): 0.001 to 0.1 nM
CC50 at 3 days [3]: > 1 nM

COC(=O)N[C@H](C(=O)N1CC2(CC2)C[C@H]1c1ncc(-c2ccc(-c3ccc(-c4[nH]c([C@@H]5CCCN5C(=O)[C@@H](NC(=O)OC)[C@@H](C)OC)c5c4COC5)cc3)cc2)[nH]1)C(C)C [AG_117]
EC50 ([1]; Hepatitis C virus, 72 h): 0.101 to 1 nM
EC50 ([2]; Hepatitis C virus, 72 h): 0.001 to 0.1 nM
CC50 at 3 days [3]: > 1 nM

COC(=O)N[C@H](C(=O)N1CCC[C@H]1c1ccc(-c2ccc(-c3ccc(-c4cnc([C@@H]5CCCN5C(=O)[C@@H](NC(=O)OC)[C@@H](C)OC)[nH]4)cc3)cc2)[nH]1)[C@@H](C)OC [AG_118_B]
EC50 ([1]; Hepatitis C virus, 72 h): 1 to 10 nM
EC50 ([2]; Hepatitis C virus, 72 h): 0.001 to 0.1 nM
CC50 at 3 days [3]: > 1 nM

COC(=O)N[C@@H](CO)C(=O)N1CCC[C@H]1c1ncc(-c2ccc(-c3ccc(-c4ccc([C@@H]5CCCN5C(=O)[C@@H](NC(=O)OC)C(C)OC)[nH]4)cc3)cc2)[nH]1 (stereo partly drawn) [AG_119]
EC50 ([1]; Hepatitis C virus, 72 h): 0.101 to 1 nM
EC50 ([2]; Hepatitis C virus, 72 h): 0.001 to 0.1 nM
CC50 at 3 days [3]: > 1 nM

COC(=O)N[C@H](C(=O)N1CCC[C@H]1c1ccc(-c2ccc(-c3ccc(-c4cnc([C@@H]5CCCCN5C(=O)[C@@H](NC(=O)OC)[C@@H](C)OC)[nH]4)cc3)cc2)[nH]1)[C@@H](C)OC [AG_120]
EC50 ([1]; Hepatitis C virus, 72 h): 1 to 10 nM
EC50 ([2]; Hepatitis C virus, 72 h): 0.001 to 0.1 nM
CC50 at 3 days [3]: > 1 nM

COC(=O)N[C@H](C(=O)N1CCC[C@H]1c1[nH]c(-c2ccc(-c3ccc(-c4cnc([C@@H]5CCCCN5C(=O)[C@@H](NC(=O)OC)[C@@H](C)OC)[nH]4)cc3)cc2)c2c1CCCO2)C(C)C [AG_121]
EC50 ([1]; Hepatitis C virus, 72 h): 10 to 100 nM
EC50 ([2]; Hepatitis C virus, 72 h): 0.001 to 0.1 nM
CC50 at 3 days [3]: > 1 nM

COC(=O)N[C@H](C(=O)N1CCC[C@H]1c1ncc(-c2ccc(-c3ccc(-c4[nH]c([C@@H]5CCCN5C(=O)[C@@H](NC(=O)OC)C(C)C)c5c4OCC5)cc3)cc2)[nH]1)C(C)C [AG_122_A]
EC50 [1]: 1 to 10 nM
EC50 [2]: 0.001 to 0.1 nM
CC50 at 3 days [3]: > 1 nM

COC(=O)N[C@H](C(=O)N1CCC[C@@H]1c1[nH]c(-c2ccc(-c3ccc(-c4cnc([C@@H]5CCCN5C(=O)[C@@H](NC(=O)OC)C(C)C)[nH]4)cc3)cc2)c2c1CCO2)C(C)C [AG_122_B]
EC50 ([1]; Hepatitis C virus, 72 h): 10 to 100 nM
EC50 ([2]; Hepatitis C virus, 72 h): 0.101 to 1 nM
CC50 at 3 days [3]: > 1 nM

COC(=O)N[C@H](C(=O)N1CCCC[C@H]1c1ncc(-c2ccc(-c3ccc(-c4[nH]c([C@@H]5CCCN5C(=O)[C@@H](NC(=O)OC)C(C)OC)c5c4COC5)cc3)cc2)[nH]1)C(C)C (stereo partly drawn) [AG_123]
EC50 ([1]; Hepatitis C virus, 72 h): 1 to 10 nM
EC50 ([2]; Hepatitis C virus, 72 h): 0.001 to 0.1 nM
CC50 at 3 days [3]: > 1 nM
